# Measured values as given in US20020115624A1, “Alpha gylcosylceramides for treating bacterial and fungal infections” (priority 2000, published 2002).
# What was measured:
# NKT cells = conditions: specificity for the α-linkage; cited from earlier work
# M. tuberculosis (Erdman) = experiment: Intravenous inoculation model of tuberculosis: survival of infected BALB/c mice treated with α-galactosylceramide; type: in vivo
# [1] = system: NK, B, CD8+, and CD4+ lymphocytes; conditions: cited from earlier work
Molecule,activation of NKT cells (NKT cells),"survival compared to the control group (M. tuberculosis (Erdman); BALB/c mice, 5×10^5 cfu IV, 2 ug IP on days 1, 5 and 9, nine mice per group)","mean survival time (MST) (M. tuberculosis (Erdman); BALB/c mice, 5×10^5 cfu IV, 2 ug IP on days 1, 5 and 9 after infection, vehicle MST 60 days, p<0.0001 by log-rank test) [days]","bacteriological cure (M. tuberculosis (Erdman); preliminary experiments, all of the infected mice died despite treatment)","time to activation of NK, B, CD8+ and CD4+ lymphocytes (induction of CD69, CD80, CD86) ([1]; administration to mice in vivo) [h]",time to detectable increase in serum IFN-γ ([1]; following in vivo treatment of mice) [h],activation of the immune system ([1]; mice that lack CD1d (CD1d −/−) or lack NKT cells (Jα281−/−))
β-galactosylceramide,does not activate NKT cells,,,,,,
CCCCCCCCCCCCCCCCCCCCCCCCCC(=O)N[C@@H](CO[C@H]1O[C@H](CO)[C@H](O)[C@H](O)[C@H]1O)[C@H](O)[C@H](O)CCCCCCCCCCCCCC [α-galactosylceramide],,increased survival,91,did not result in a bacteriological cure,3 to 24,≤ 18,does not occur
